From ChEMBL document CHEMBL5137025, “Tuberculosis Drug Discovery: Challenges and New Horizons” (J Med Chem, 2022)
In brackets after ≈: the same amount, converted by molar mass.

How the values were obtained:
[1] = test system: Mycobacterium tuberculosis; assay type: functional; details: H37Rv, time 6 day
[2] = test system: Mycobacterium tuberculosis; assay type: functional, H37Rv; details: dose 18 mg/kg; time 8 day
[3] = test system: Mycobacterium tuberculosis; assay: microbe, parasite or virus in culture; details: H37Rv
Description: Antibacterial activity against Mycobacterium tuberculosis H37Rv assessed as inhibition of bacterial growth

[4] = Inhibition of Mycobacterium tuberculosis ArgJ assessed as inhibition constant by measuring change in blue shift by ANS dye based displacement assay
[5] = test system: Mycobacterium tuberculosis; assay type: functional, H37Rv; details: dose 40 mg/kg; route po; time 24 day
[6] = test system: Mycobacterium tuberculosis; assay type: functional, THP-1; details: H37Rv
[7] = test system: Mycobacterium tuberculosis; assay: Antibacterial activity against Mycobacterium tuberculosis in acute Mtb infection 129sv dehydropeptidase-1 KO mouse model assessed as reduction in log10 CFU administered subcutaneously twice daily for 6 days; assay type: functional; details: route sc; time 6 day
[8] = test system: Mycobacterium tuberculosis; assay type: functional, THP-1; details: H37Rv; remark: listed apart in the source
[9] = test system: Mycobacterium tuberculosis; assay: Antibacterial activity against Mycobacterium tuberculosis in acute Mtb infection BALB/c mouse model assessed as reduction in log10 CFU treated for 6 days; assay type: functional; details: time 6 day
[10] = biological target: Voltage-gated inwardly rectifying potassium channel KCNH2 (Homo sapiens, UniProt Q12809)
[11] = Stability in mouse liver microsome assessed as half life by Reverse-phase HPLC analysis; assay type: ADME; details: liver microsomes
[12] = test system: Mycobacterium tuberculosis; assay type: functional, H37Rv; details: dose 100 mg/kg; time 8 weeks
[13] = test system: Mycobacterium tuberculosis; assay type: functional, H37Rv; details: dose 200 mg/kg; time 8 day
HepG2 [14] = assay: Cytotoxicity against human HepG2 cells; assay type: functional
[15] = Cytotoxicity against African green monkey Vero cells assessed as reduction in cell viability by MTT assay; assay type: toxicity, cell-based; details: chlorocebus sabaeus
[16] = Kinetic solubility of the compound; assay type: physicochemical; details: read-out: Kinetic_solubility
[17] = Kinetic aqueous solubility of the compound incubated for 4.5 hrs by LC-MS/MS analysis; assay type: physicochemical; details: buffer, read-out: Kinetic_solubility
[18] = test system: Mycobacterium tuberculosis; assay type: functional; details: H37Rv, 336 h, time 14 day
[19] = test system: Mycobacterium tuberculosis; assay: Antibacterial activity against Mycobacterium tuberculosis Erdman in acute Mtb infection BALB/c mouse model assessed as reduction in log10 CFU at 35 mg/kg, ip for 8 days; assay type: functional; details: time 8 day
[20] = test system: Mycobacterium tuberculosis; assay: Antibacterial activity against Mycobacterium tuberculosis Beijing strain in acute Mtb infection BALB/c mouse model assessed as reduction in log10 CFU in lungs at 50 mg/kg, po for 3 weeks; assay type: functional
[21] = test system: Mycobacterium tuberculosis; assay: Antibacterial activity against Mycobacterium tuberculosis infected in macrophage assessed as inhibition of bacterial growth in presence of Ethionamide; assay type: functional, organism-based
[22] = Half life in mouse; assay type: ADME, organism-based; details: in vivo
[23] = test system: Mycobacterium tuberculosis; assay type: functional; details: H37Rv
[24] = test system: Mycobacterium tuberculosis; assay type: functional; details: H37Rv, 336 h, time 14 day; remark: listed apart in the source
[25] = test system: Mycobacterium tuberculosis; assay type: functional; details: H37Rv, 336 h, time 14 day; remark: listed apart in the source
[26] = test system: Mycobacterium tuberculosis; assay: Antibacterial activity against Mycobacterium tuberculosis in acute Mtb infection mouse model assessed as reduction in log10 CFU at 200 mg/kg for 3 weeks in presence of Rifampicin; assay type: functional
[27] = test system: Mycobacterium tuberculosis; assay: Antibacterial activity against Mycobacterium tuberculosis in acute Mtb infection mouse model assessed as reduction in log10 CFU at 200 mg/kg for 3 weeks; assay type: functional
[28] = test system: Mycobacterium tuberculosis; assay type: functional; details: H37Rv, 336 h, time 14 day; remark: listed apart in the source
[29] = test system: Mycobacterium tuberculosis; assay type: functional, H37Rv; details: dose 400 mg/kg; route sc; time 3 weeks
HepG2 [30] = assay: cells; details: Homo sapiens, HepG2, 40 h
Description: Cytotoxicity against human HepG2 cells treated for 40 hrs by Cell Titer Glo luminescence assay

[31] = test system: Mycobacterium tuberculosis; assay type: functional, H37Rv; details: dose 20-200 mg/kg; route po; time 4 weeks
[32] = Protein binding in human plasma incubated for 5 hrs by LC-MS/MS analysis; assay type: ADME, cell-free; details: read-out: PPB (converted)
[33] = test system: Mycobacterium tuberculosis; assay type: functional, H37Rv; details: dose 100 mg/kg; route po; time 4 weeks
[34] = test system: Mycobacterium tuberculosis; assay type: functional; details: H37Rv, 168 h, time 7 day
[35] = Half life in BALB/c mouse at 100 mg/kg, po by LC/MS analysis; assay type: ADME, organism-based; details: in vivo
[36] = test system: Mycobacterium tuberculosis; assay: Antibacterial activity against Mycobacterium tuberculosis in chronic Mtb infection BALB/c mouse model assessed as reduction in log10 CFU in lungs at 100 mg/kg, po for 4 weeks; assay type: functional

Voltage-gated inwardly rectifying potassium channel KCNH2, sequence (Q12809 whole entry): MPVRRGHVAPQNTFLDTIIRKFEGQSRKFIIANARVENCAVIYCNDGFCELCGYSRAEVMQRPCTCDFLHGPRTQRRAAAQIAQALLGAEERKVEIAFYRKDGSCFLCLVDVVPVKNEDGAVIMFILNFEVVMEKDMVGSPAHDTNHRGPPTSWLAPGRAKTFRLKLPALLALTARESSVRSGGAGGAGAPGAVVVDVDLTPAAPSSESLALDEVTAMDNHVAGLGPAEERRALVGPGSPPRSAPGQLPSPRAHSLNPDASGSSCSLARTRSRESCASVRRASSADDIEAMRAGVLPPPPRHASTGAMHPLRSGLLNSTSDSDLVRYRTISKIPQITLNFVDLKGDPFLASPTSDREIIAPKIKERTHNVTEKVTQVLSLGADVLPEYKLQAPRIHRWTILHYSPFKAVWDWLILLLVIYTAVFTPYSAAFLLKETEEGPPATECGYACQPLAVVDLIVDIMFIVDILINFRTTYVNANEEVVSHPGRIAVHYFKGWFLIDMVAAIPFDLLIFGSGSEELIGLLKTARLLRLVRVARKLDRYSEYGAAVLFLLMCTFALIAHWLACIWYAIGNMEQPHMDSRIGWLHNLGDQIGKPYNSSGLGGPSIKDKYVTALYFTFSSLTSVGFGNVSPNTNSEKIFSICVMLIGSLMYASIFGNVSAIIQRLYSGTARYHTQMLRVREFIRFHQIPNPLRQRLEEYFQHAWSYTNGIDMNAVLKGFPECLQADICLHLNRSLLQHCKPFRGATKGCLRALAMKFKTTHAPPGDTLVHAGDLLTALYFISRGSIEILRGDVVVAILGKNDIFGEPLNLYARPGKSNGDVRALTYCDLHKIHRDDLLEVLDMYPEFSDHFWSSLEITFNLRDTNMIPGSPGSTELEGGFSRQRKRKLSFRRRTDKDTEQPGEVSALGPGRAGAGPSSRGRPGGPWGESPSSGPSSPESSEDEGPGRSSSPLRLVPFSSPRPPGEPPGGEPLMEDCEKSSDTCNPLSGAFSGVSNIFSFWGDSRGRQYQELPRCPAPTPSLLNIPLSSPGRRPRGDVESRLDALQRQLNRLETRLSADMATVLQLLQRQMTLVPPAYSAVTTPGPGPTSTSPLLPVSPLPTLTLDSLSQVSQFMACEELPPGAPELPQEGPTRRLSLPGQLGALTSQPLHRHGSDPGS

Which MIC [1] does the source give for `CCCCS(=O)(=O)Nc1ccc2[nH]ncc2c1` here?
The MIC was 1.2 µM (≈ 0.304 µg/mL).

What about the Activity [2] of the same compound?
Its Activity is 2 log10CFU.

For `O=C(Nc1cccc2c(=O)cc(-c3nnn[nH]3)oc12)c1ccc(OCCCCc2ccccc2)cc1`, which MIC90 [3] is on record?
Its MIC90 is 10 µM (≈ 4.82 µg/mL).

What about the Ki [4] of the same compound?
The Ki was 139 µM.

What about the Activity [5] of the same compound?
Its Activity is 0.5 log10CFU.

Which MIC90 [6] does the source give for `CO[C@H]1CCC[C@H]2C1=C(C(=O)[O-])N1C(=O)[C@H]([C@@H](C)O)[C@@H]21.[Na+]` [SANFETRINEM SODIUM] here?
Its MIC90 is 5.6 µM.

What about the MIC [3] of the same compound?
Its MIC is 5 µM.

What about the Activity [7] of the same compound?
Its Activity is 1.7 log10CFU.

And the MIC [8]?
Its MIC is 5 µM.

What about the Activity [9] of the same compound?
Its Activity is 1.7 log10CFU.

With `CCCCS(=O)(=O)Nc1ccc2cnn(C)c2c1` as the compound, how does the IC50 [10] read?
Its IC50 is > 50 µM.

And the MIC [3]?
The MIC was 0.8 µM (≈ 0.214 µg/mL).

What about the half-life [11] of the same compound?
Its half-life is 10 min.

What about the Activity [12] of the same compound?
Its Activity is 2.4 log10CFU.

What about the Activity [13] of the same compound?
The Activity was 3.5 log10CFU.

What about the CC50 (HepG2 [14]) of the same compound?
Its CC50 is > 100 µM.

What about the CC50 [15] of the same compound?
Its CC50 is 170 µM.

What about the solubility kinetic [16] of the same compound?
Its solubility kinetic is > 550 µM.

And the solubility kinetic at 4.5 h [17]?
Its solubility kinetic at 4.5 h is 175 µM (≈ 46.8 µg/mL).

What does the source list for `Cc1cc2oc(=O)cc(-c3cccc(N)c3)c2c(C)c1-c1ccc(CN2CCOCC2)cc1`?
MIC99 [18]: 0.24 µM (≈ 0.106 µg/mL); Activity [19]: 2 log10CFU

What does the source list for `O=C(CCC(F)(F)F)N1CCC2(CC1)CC(c1ccccc1)=NO2`?
Activity [20]: 1 log10CFU; EC50 [21]: 0.02 µM; half-life [22]: 19 min; MIC [23]: 0.3 µM (≈ 0.102 µg/mL)

What does the source list for `C[C@@H](O)[C@H]1C(=O)N2C(C(=O)[O-])=C(SC3Cn4cnc[n+]4C3)[C@H](C)[C@H]12` (some centres not stated) [BIAPENEM]?
half-life [22]: 17.4 min; MIC90 [24]: 1.7 µM (≈ 0.596 µg/mL); MIC90 [25]: 7.1 µM (≈ 2.49 µg/mL); Activity [26]: 8.6 log10CFU; Activity [27]: 5.3 log10CFU

With `CSC1=C(C(=O)[O-])N2C(=O)[C@H]([C@@H](C)O)[C@H]2[C@H]1C.[Na+]` as the compound, how does the MIC90 [28] read?
Its MIC90 is 0.9 µM.

What about the Activity [29] of the same compound?
The Activity was <2 log10CFU.

With `CCNC(=N)NC(=O)Nc1c(CC)cccc1CC` as the compound, how does the half-life [22] read?
Its half-life is 402 min.

And the CC50 (HepG2 [30])?
The CC50 was > 30 µM.

For `Cc1n[nH]c2ccc(NS(=O)(=O)CCCCF)cc12`, which IC50 [10] is on record?
Its IC50 is > 50 µM.

What about the Activity [31] of the same compound?
Its Activity is >2 log10CFU.

And the half-life [11]?
The half-life was 28 min.

What about the fraction unbound at 5 h [32] of the same compound?
The fraction unbound at 5 h was 0.23.

What about the Activity [33] of the same compound?
Its Activity is 2 log10CFU.

What about the MIC [34] of the same compound?
Its MIC is 0.2 µM (≈ 0.0571 µg/mL).

With `Nc1nc(N)c(N=O)c(OCC2CCCCC2)n1` as the compound, how does the half-life [35] read?
Its half-life is 60 min.

And the Activity [36]?
Its Activity is 0.9 log10CFU.
